For the assay, the target named is T1, human GR (Homo sapiens, UniProt P04150).
T1 sequence (P04150 1-777): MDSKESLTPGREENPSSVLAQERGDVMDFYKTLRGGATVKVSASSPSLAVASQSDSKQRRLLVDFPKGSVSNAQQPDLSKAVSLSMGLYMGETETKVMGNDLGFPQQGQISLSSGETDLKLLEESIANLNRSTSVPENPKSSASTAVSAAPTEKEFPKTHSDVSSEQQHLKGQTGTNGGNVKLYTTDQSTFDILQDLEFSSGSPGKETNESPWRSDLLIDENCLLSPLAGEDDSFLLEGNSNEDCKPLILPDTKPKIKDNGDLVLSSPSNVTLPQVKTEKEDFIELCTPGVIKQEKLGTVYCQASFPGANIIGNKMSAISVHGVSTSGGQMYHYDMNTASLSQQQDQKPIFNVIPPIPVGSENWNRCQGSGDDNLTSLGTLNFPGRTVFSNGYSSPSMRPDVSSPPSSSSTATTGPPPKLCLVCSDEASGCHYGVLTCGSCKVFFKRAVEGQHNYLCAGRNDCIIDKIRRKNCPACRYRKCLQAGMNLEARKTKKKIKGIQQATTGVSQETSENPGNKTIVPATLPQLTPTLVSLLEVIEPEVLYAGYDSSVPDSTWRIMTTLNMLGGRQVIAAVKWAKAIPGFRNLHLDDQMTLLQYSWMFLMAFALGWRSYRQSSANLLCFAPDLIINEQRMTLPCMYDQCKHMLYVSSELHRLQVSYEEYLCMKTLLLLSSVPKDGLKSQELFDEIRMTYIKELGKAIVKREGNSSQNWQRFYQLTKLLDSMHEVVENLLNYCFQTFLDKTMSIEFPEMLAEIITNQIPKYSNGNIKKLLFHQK
In words: Transrepression Assay (GITAR), TNFα-β-lactamase reporter in U937 cells. The format is cell-based. Details: U937 cells contain an endogenous glucocorticoid receptor (GR); endogenous in cells; host or cells: U937 cells stably transfected with the TNF-alpha promoter/beta-lactamase reporter. The settings on record: for GITAR > GRAMM % SEP: GITAR Emax minus GRAMMER Emax; for EC50: U937 cells, inflection point, read-out: Transrepression U937 Cells GITAR IP. The gist of the method:
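U937 cells with endogenous GR, stably carrying TNFα promoter–β-lactamase, preincubated with compound 30–45 min at 37° C, then stimulated with PMA 5 ng/ml and LPS 100 ng/ml (final) ~18 hr. Read-out via CCF2-AM loading; repression by 100 nM dexamethasone set as 100%.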

[1] abbreviates: U-937, U937 cells, maximum activity, read-out: Transrepression U937 Cells GITAR Emax.
The mark [2] stands for this setting: U-937, activity repressed by 100 nM dexamethasone alone set as 100%, read-out: maximal activity in the transrepression (GITAR) assay.

Data on 16 compounds can be found in patent publication US8299048B2, “Hexahydrocyclopentyl[f]indazole sulfonamides and derivatives thereof as selective glucocorticoid receptor modulators” (Merck Sharp & Dohme Corp., priority 2008, dated 2012).

Where two headings read alike, the source gives them in different places. Bounds are passed on as bounds.

With `C[C@]12Cc3cnn(-c4ccc(F)cc4)c3C=C1CC[C@@H]2CNS(=O)(=O)Cc1cccnc1` [Example 169, N-{[(4αR,5S)-1-(4-fluorophenyl)-4α-methyl-1,4,4α,5,6,7-hexahydrocyclopenta[f]indazol-5-yl]methyl}-1-pyridin-3-ylmethanesulfonamide], the “GITAR > GRAMM % SEP” value worked out at 56.1% and the EC50 was determined as 3030 nM. Further, under setting [1], the Emax stood at 68.5%. Moreover, the Emax under setting [2] is > 5%.
On the same counts, the results for `Cc1noc(C)c1S(=O)(=O)N(CC1CCCO1)C[C@H]1CCC2=Cc3c(cnn3-c3ccc(F)cc3)C[C@@]21C` (stereo partly drawn) [Example 170, N-{[(4αR,5S)-1-(4-fluorophenyl)-4α-methyl-1,4,4α,5,6,7-hexahydrocyclopenta[f]indazol-5-yl]methyl}-3,5-dimethyl-N-(tetrahydrofuran-2-ylmethyl)isoxazole-4-sulfonamide] are 11.8%, 759 nM, 87.7% and > 5%.
On the same counts, the results for `CCS(=O)(=O)N(CCOC)C[C@H]1CCC2=Cc3c(cnn3-c3ccc(F)cc3)C[C@@]21C` [Example 171, N-{[(4αR,5S)-1-(4-fluorophenyl)-4α-methyl-1,4,4α,5,6,7-hexahydrocyclopenta[f]indazol-5-yl]methyl}-N-(2-methoxyethyl)ethanesulfonamide] are 16.7%, 410 nM, 88% and > 5%.
For `COCCN(C[C@H]1CCC2=Cc3c(cnn3-c3ccc(F)cc3)C[C@@]21C)S(=O)(=O)c1cn(C)nc1C(F)(F)F` [Example 172, N-{[(4αR,5S)-1-(4-fluorophenyl)-4α-methyl-1,4,4α,5,6,7-hexahydrocyclopenta[f]indazol-5-yl]methyl}-N-(2-methoxyethyl)-1-methyl-3-(trifluoromethyl)-1H-pyrazole-4-sulfonamide], the “GITAR > GRAMM % SEP” value is on record as 31.8% and the EC50 is 718 nM. Under setting [1], the Emax stood at 42.4%. In addition, the Emax under setting [2] was > 5%.
As for `COCCN(C[C@H]1CCC2=Cc3c(cnn3-c3ccc(F)cc3)C[C@@]21C)S(=O)(=O)c1c(C)noc1C` [Example 173, N-{[(4αR,5S)-1-(4-fluorophenyl)-4α-methyl-1,4,4α,5,6,7-hexahydrocyclopenta[f]indazol-5-yl]methyl}-N-(2-methoxyethyl)-3,5-dimethylisoxazole-4-sulfonamide], the “GITAR > GRAMM % SEP” value was determined as 12.6% and the EC50 was 520 nM. Under setting [1], the Emax turned out to be 83%. The Emax under setting [2] is > 5%.
The corresponding values for `CCS(=O)(=O)N(CC1CCCO1)C[C@H]1CCC2=Cc3c(cnn3-c3ccc(F)cc3)C[C@@]21C` (stereo partly drawn) [Example 174, N-{[(4αR,5S)-1-(4-fluorophenyl)-4α-methyl-1,4,4α,5,6,7-hexahydrocyclopenta[f]indazol-5-yl]methyl}-N-(tetrahydrofuran-2-ylmethyl)ethanesulfonamide] are 4.2%, 423 nM, 85.3% and > 5%.
Take `Cn1cc(S(=O)(=O)N(CC2CCCO2)C[C@H]2CCC3=Cc4c(cnn4-c4ccc(F)cc4)C[C@@]32C)c(C(F)(F)F)n1` (stereo partly drawn) [Example 175, N-{[(4αR,5S)-1-(4-fluorophenyl)-4α-methyl-1,4,4α,5,6,7-hexahydrocyclopenta[f]indazol-5-yl]methyl}-1-methyl-N-(tetrahydrofuran-2-ylmethyl)-3-(trifluoromethyl)-1H-pyrazole-4-sulfonamide]: the EC50 is 822 nM. Besides, the Emax under setting [1] was determined as 47.5%. Further, the Emax under setting [2] is > 5%.
Regarding `Cc1noc(C)c1S(=O)(=O)N(C)C[C@H]1CCC2=Cc3c(cnn3-c3ccc(F)cc3)C[C@@]21C` [Example 176, N-{[(4αR,5S)-1-(4-fluorophenyl)-4α-methyl-1,4,4α,5,6,7-hexahydrocyclopenta[f]indazol-5-yl]methyl}-N,3,5-trimethylisoxazole-4-sulfonamide], the “GITAR > GRAMM % SEP” value is 17.6% and the EC50 was determined as 316 nM. Further, under setting [1], the Emax came to 74.5%. For the same compound, under setting [2], the Emax was > 5%.
The corresponding values for `CN(C[C@H]1CCC2=Cc3c(cnn3-c3ccc(F)cc3)C[C@@]21C)S(=O)(=O)CC(F)(F)F` [Example 177, 2,2,2-trifluoro-N-{[(4αR,5S)-1-(4-fluorophenyl)-4α-methyl-1,4,4α,5,6,7-hexahydrocyclopenta[f]indazol-5-yl]methyl}-N-methylethanesulfonamide] are 12.9%, 177 nM, 80.2% and > 5%.
As to `CCN(C[C@H]1CCC2=Cc3c(cnn3-c3ccc(F)cc3)C[C@@]21C)S(=O)(=O)c1c(C)noc1C` [Example 178, N-ethyl-N-{[(4αR,5S)-1-(4-fluorophenyl)-4α-methyl-1,4,4α,5,6,7-hexahydrocyclopenta[f]indazol-5-yl]methyl}-3,5-dimethylisoxazole-4-sulfonamide], the “GITAR > GRAMM % SEP” value was found to be 19.5% and the EC50 was 276 nM. Further, the Emax under setting [1] came out at 74.5%. In addition, the Emax under setting [2] was > 5%.
Take `CCN(C[C@H]1CCC2=Cc3c(cnn3-c3ccc(F)cc3)C[C@@]21C)S(=O)(=O)CC(F)(F)F` [Example 179, N-ethyl-2,2,2-trifluoro-N-{[(4αR,5S)-1-(4-fluorophenyl)-4α-methyl-1,4,4α,5,6,7-hexahydrocyclopenta[f]indazol-5-yl]methyl}ethanesulfonamide]: the “GITAR > GRAMM % SEP” value was determined as 31.2% and the EC50 came to 440 nM. Besides, the Emax under setting [1] stood at 96.5%. The Emax under setting [2] is > 5%.
Take `COC(=O)c1ccccc1CS(=O)(=O)N(C[C@H]1CCC2=Cc3c(cnn3-c3ccc(F)cc3)C[C@@]21C)C[C@@H](C)O` [Example 180, methyl 2-[({{[(4αR,5S)-1-(4-fluorophenyl)-4α-methyl-1,4,4α,5,6,7-hexahydrocyclopenta[f]indazol-5-yl]methyl}[(2R)-2-hydroxypropyl]amino}sulfonyl)methyl]benzoatee]: the “GITAR > GRAMM % SEP” value is 39.5% and the EC50 came to 187 nM. Also, the Emax under setting [1] stood at 77.7%. For the same compound, the Emax under setting [2] is > 5%.
The corresponding values for `COC(=O)c1ccccc1CS(=O)(=O)N(C[C@H]1CCC2=Cc3c(cnn3-c3ccc(F)cc3)C[C@@]21C)C[C@H](C)O` [Example 181, methyl 2-[({{[(4αR,5S)-1-(4-fluorophenyl)-4α-methyl-1,4,4α,5,6,7-hexahydrocyclopenta[f]indazol-5-yl]methyl}[(2S)-2-hydroxypropyl]amino}sulfonyl)methyl]benzoate] are 24.7%, 263 nM, 79.2% and > 5%.
On the same counts, the results for `C[C@@H](O)CN(C[C@H]1CCC2=Cc3c(cnn3-c3ccc(F)cc3)C[C@@]21C)S(=O)(=O)Cc1ccccc1C(=O)O` [Example 182, 2-[({{[(4αR,5S)-1-(4-fluorophenyl)-4α-methyl-1,4,4α,5,6,7-hexahydrocyclopenta[f]indazol-5-yl]methyl}[(2R)-2-hydroxypropyl]amino}sulfonyl)methyl]benzoic acid] are 8.2%, 1890 nM, 16.2% and > 5%.
The corresponding values for `C[C@H](O)CN(C[C@H]1CCC2=Cc3c(cnn3-c3ccc(F)cc3)C[C@@]21C)S(=O)(=O)Cc1ccccc1C(=O)O` [Example 183, 2-[({{[(4αR,5S)-1-(4-fluorophenyl)-4α-methyl-1,4,4α,5,6,7-hexahydrocyclopenta[f]indazol-5-yl]methyl}[(2S)-2-hydroxypropyl]amino}sulfonyl)methyl]benzoic acid] are 8.2%, 3310 nM, 23.2% and > 5%.
With `C[C@@H](O)CN(C[C@H]1CCC2=Cc3c(cnn3-c3ccc(F)cc3)C[C@@]21C)S(=O)(=O)Cc1ccccc1C(N)=O` [Example 184, 2-[({{[(4αR,5S)-1-(4-fluorophenyl)-4α-methyl-1,4,4α,5,6,7-hexahydrocyclopenta[f]indazol-5-yl]methyl}[(2R)-2-hydroxypropyl]amino}sulfonyl)methyl]benzamide], the “GITAR > GRAMM % SEP” value is recorded as 38.7% and the EC50 amounted to 562 nM. Further, the Emax under setting [1] turned out to be 60.3%. In addition, the Emax under setting [2] is > 5%.
